Literature values in US20230392195A1, “SYNTHETIC LETHALITY-MEDIATED PRECISION ONCOLOGY VIA TUMOR TRANSCRIPTOME” (The United States of America, as Represented by the …, priority 2020, published 2023).

System: advanced solid tumors
Conditions: individual patient case: everolimus in an neuroendocrine cancer patient, cabozantinib in a colon cancer patient

CO[C@H]1C[C@@H]2CC[C@@H](C)[C@@](O)(O2)C(=O)C(=O)N2CCCC[C@H]2C(=O)O[C@H]([C@H](C)C[C@@H]2CC[C@@H](OCCO)[C@H](OC)C2)CC(=O)[C@H](C)/C=C(\C)[C@@H](O)[C@@H](OC)C(=O)[C@H](C)C[C@H](C)/C=C/C=C/C=C/1C [everolimus]
response to the therapy in the trial: responded
